The target of one data set is T1, human TLR2 (Homo sapiens, UniProt O60603+Q15399).
T1 construct: host or cells: HEK293
Nature of the data set: IL-8 expression from HEK293/hTLR2 cells by ELISA. Format: cell-based. Particulars: 24-h incubation, varying concentrations. As to the method: (§1) HEK293 or HEK293/hTLR2 and HEK293/hTLR4/MD2/CD14, were seeded into 96-well plates at a density of 50,000 cells/well and allowed to grow overnight. The cells were then incubated with and N-palmitoyl(S)-[2,3-bis(palmitoyloxy)-(2, RS)-propyl]-Cys-Scr-Lys4 (Pam3CSK4), ultrapure Escherichia coli LPS, or fresh cultures of F. nucleatum 12230 at the indicated doses followed by a 24-h incubation. The supernatant was harvested and centrifuged and the amount of IL-8 secreted was determined by ELISA.
(§2) Immunlon flat-bottom 96-well microliter plates (Thermo Electron, Mass) were coated with goat anti-human IL-8 Ab (4 μg/ml; R&D System) in 100 μl of coating buffer (0.05 M carbonate buffer (pH 9.6)). After overnight incubation at 4° C., the plates were washed six times with washing buffer, i.e., 0.05% Tween 20 in PBS (Sigma-Aldrich), followed by an overnight incubation in blocking buffer (1% BSA in PBS) at 4° C. The plates were washed four times before an aliquot of 100 μl of diluted mammalian cell culture supernatant or human IL-8 (R&D Systems, Minn) were added to each well and incubated overnight at 4° C. The plates were washed, followed by 3-h incubation with polyclonal rabbit anti-human 11,-8 Ab (1/1000; Endogen) at room temperature. […] The light absorbance was measured at 450 nm on a Bio-Rad Model 680 microplate reader. […]
In general terms: An ELISA detects its analyte on a solid surface through an enzyme-linked reagent.

Another data set deals with T2, human TLR4/MD2/CD14 (Homo sapiens, UniProt O00206+Q9Y6Y9).
T2 construct: host or cells: HEK293
T2 sequence (O00206 24-839): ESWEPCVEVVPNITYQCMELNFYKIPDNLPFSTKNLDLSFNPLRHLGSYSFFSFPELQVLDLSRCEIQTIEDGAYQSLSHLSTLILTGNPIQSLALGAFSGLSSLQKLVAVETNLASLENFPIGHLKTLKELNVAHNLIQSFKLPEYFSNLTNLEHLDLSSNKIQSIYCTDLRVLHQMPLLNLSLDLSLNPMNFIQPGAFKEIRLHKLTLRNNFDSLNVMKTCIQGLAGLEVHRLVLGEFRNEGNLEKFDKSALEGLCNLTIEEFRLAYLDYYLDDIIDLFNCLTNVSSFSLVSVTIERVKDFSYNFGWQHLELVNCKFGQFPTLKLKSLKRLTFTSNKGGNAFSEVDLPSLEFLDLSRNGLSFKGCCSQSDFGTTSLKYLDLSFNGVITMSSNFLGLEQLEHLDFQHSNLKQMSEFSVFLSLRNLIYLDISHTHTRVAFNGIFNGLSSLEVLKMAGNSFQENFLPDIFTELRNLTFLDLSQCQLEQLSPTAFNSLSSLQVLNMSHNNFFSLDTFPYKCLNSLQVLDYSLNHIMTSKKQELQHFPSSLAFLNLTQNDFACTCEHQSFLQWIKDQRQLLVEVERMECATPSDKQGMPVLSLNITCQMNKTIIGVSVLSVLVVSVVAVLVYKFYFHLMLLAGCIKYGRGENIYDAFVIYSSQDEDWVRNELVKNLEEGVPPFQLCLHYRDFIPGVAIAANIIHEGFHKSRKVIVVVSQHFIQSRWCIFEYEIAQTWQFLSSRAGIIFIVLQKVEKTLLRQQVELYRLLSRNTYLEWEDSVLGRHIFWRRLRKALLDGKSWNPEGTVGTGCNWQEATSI
T2 sequence (Q9Y6Y9 19-160): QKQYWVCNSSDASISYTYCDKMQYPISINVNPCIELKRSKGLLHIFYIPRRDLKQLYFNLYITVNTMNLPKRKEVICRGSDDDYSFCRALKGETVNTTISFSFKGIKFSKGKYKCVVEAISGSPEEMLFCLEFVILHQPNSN
Nature of the data set: IL-8 expression from HEK293/hTLR4/MD2/CD14 cells by ELISA. It is filed as cell-based. Particulars: 24-h incubation, varying concentrations. As for the experimental part:
as §1, §2

The subject of a further data set is mice. To be noted: literature (Elovitz et al., 2006); cited from earlier work.

T1 sequence (O60603 21-784): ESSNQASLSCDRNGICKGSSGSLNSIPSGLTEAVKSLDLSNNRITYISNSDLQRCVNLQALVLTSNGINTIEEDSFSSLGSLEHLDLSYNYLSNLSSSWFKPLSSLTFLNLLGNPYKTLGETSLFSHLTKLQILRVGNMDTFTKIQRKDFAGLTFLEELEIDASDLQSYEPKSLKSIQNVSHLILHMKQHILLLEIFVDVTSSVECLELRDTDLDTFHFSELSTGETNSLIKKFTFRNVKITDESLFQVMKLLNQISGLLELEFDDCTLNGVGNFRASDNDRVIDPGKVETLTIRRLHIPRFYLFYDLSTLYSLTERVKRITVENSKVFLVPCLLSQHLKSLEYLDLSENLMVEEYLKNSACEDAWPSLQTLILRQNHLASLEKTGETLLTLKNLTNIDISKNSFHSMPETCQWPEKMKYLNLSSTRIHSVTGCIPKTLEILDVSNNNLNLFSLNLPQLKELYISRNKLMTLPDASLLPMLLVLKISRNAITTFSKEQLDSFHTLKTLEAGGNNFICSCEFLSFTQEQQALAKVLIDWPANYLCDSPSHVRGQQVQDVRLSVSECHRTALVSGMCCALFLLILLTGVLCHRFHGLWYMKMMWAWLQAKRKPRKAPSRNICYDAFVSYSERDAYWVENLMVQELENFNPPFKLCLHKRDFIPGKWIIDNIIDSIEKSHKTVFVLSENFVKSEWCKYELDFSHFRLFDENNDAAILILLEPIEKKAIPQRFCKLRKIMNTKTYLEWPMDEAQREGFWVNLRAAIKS
T1 sequence (Q15399 25-786): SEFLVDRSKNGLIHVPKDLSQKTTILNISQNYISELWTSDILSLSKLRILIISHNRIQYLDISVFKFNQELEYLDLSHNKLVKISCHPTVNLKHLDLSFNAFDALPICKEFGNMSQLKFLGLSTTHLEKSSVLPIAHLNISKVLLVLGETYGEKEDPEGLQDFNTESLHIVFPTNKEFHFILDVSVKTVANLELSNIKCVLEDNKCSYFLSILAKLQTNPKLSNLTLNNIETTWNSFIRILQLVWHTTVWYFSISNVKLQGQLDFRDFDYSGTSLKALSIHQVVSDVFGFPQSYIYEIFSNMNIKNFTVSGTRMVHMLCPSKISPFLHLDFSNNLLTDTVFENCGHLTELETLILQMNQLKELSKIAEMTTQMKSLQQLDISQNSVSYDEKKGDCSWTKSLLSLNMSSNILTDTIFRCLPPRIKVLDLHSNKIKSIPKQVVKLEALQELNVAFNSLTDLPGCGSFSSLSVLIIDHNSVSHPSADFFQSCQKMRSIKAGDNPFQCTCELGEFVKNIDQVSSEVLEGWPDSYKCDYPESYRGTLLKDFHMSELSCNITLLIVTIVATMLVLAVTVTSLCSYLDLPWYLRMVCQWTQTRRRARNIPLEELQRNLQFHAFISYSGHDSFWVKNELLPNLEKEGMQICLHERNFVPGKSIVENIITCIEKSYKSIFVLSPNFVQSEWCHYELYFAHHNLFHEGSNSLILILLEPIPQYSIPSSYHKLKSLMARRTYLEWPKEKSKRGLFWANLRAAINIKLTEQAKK

For the compound “N-palmitoyl(S)-[2,3-bis(palmitoyloxy)-(2, RS)-propyl]-Cys-Scr-Lys4 [Pam3CSK4]”, on human TLR2, the “activation of TLR2 (IL-8 expression)” value is given as “only activated their respective receptors”. The “activation of TLR4 (IL-8 expression)” value at human TLR4/MD2/CD14 was “not vice versa”.
As to `CCCCCC(=O)O[C@]1(C(C)=O)CC[C@H]2[C@@H]3CCC4=CC(=O)CC[C@]4(C)[C@H]3CC[C@@]21C` [17-α hydroxyprogesterone caproate], the “maternal morbidity in mice” value in the data set with mice is on record as “significant maternal morbidity”.

(Values after patent publication US9012410B2, “Method of treating intrauterine inflammation” (Case Western Reserve University, priority 2006, dated 2015).)
